Reference: PubChem BioAssay (NCI)
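Dose response: 5 concentrations. Exposure: 48 h. Format: 96-well plates. Endpoint: linear interpolation; highest concentration if not reached. Definition used: TGI = concentration required for complete inhibition of growth.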

Experiments:
Experiment in all cases: growth of human tumour cells (NCI), 48 h
[1] = tested on: SNB-75 CNS
[2] = tested on: MALME-3M melanoma
[3] = tested on: NCI/ADR-RES ovarian
[4] = tested on: SK-MEL-2 melanoma
[5] = tested on: OVCAR-8 ovarian
[6] = tested on: TK-10 renal
[7] = tested on: SF-295 CNS
[8] = tested on: PC-3 prostate
[9] = tested on: NCI-H23 lung
[10] = tested on: ACHN renal
[11] = tested on: SK-OV-3 ovarian
[12] = tested on: KM12 colon
[13] = tested on: RXF 393 renal
[14] = tested on: OVCAR-3 ovarian
[15] = tested on: SK-MEL-28 melanoma
[16] = tested on: K-562 leukemia
[17] = tested on: HL-60(TB) leukemia
[18] = tested on: UO-31 renal
[19] = tested on: UACC-62 melanoma
[20] = tested on: SW-620 colon
[21] = tested on: MCF7 breast
[22] = tested on: SK-MEL-5 melanoma
[23] = tested on: UACC-257 melanoma
[24] = tested on: SF-268 CNS
[25] = tested on: 786-0 renal
[26] = tested on: HT29 colon
[27] = tested on: IGROV1 ovarian
[28] = tested on: M14 melanoma
[29] = tested on: NCI-H226 lung
[30] = tested on: NCI-H460 lung
[31] = tested on: HS 578T breast
[32] = tested on: A549 NSCLC
[33] = tested on: HCC-2998 colon
[34] = tested on: MDA-MB-435
[35] = tested on: A498 renal
[36] = tested on: COLO 205 colon
[37] = tested on: HCT-116 colon
[38] = tested on: LOX IMVI melanoma
[39] = tested on: HOP-62 NSCLC
[40] = tested on: NCI-H522 lung
[41] = tested on: OVCAR-4 ovarian
[42] = tested on: MOLT-4 leukemia
[43] = tested on: HCT-15 colon
[44] = tested on: T-47D breast
[45] = tested on: SNB-19 CNS
[46] = tested on: OVCAR-5 ovarian
[47] = tested on: MDA-N
[48] = tested on: MDA-MB-231 breast
[49] = tested on: BT-549 breast
[50] = tested on: DU-145 prostate
[51] = tested on: CCRF-CEM leukemia
[52] = tested on: RPMI-8226 leukemia
[53] = tested on: HOP-92 NSCLC
[54] = tested on: CAKI-1 renal
[55] = tested on: SN12C renal
[56] = tested on: U251 CNS
[57] = tested on: SF-539 CNS
[58] = tested on: SR leukemia

## CCCC(Sc1nc(N)nc2nc[nH]c12)C(=O)O (stereo unspecified)
[1]
  TGI: > 100 µM
[2]
  TGI: > 100 µM
[3]
  TGI: > 100 µM
[4]
  TGI: > 100 µM
[5]
  TGI: > 100 µM
[6]
  TGI: 88 µM
[7]
  TGI: > 100 µM
[8]
  TGI: > 100 µM
[9]
  TGI: > 100 µM
[10]
  TGI: > 100 µM
[11]
  TGI: > 100 µM
[12]
  TGI: > 100 µM
[13]
  TGI: > 100 µM
[14]
  TGI: > 100 µM
[15]
  TGI: > 100 µM
[16]
  TGI: > 100 µM
[17]
  TGI: > 100 µM
[18]
  TGI: > 100 µM
[19]
  TGI: > 100 µM
[20]
  TGI: > 100 µM
[21]
  TGI: > 100 µM
[22]
  TGI: > 100 µM
[23]
  TGI: > 100 µM
[24]
  TGI: > 100 µM
[25]
  TGI: > 100 µM
[26]
  TGI: > 100 µM
[27]
  TGI: > 100 µM
[28]
  TGI: > 100 µM
[29]
  TGI: > 100 µM
[30]
  TGI: > 100 µM
[31]
  TGI: > 100 µM
[32]
  TGI: > 100 µM
[33]
  TGI: 76.9 µM
[34]
  TGI: > 100 µM
[35]
  TGI: > 100 µM
[36]
  TGI: > 100 µM
[37]
  TGI: > 100 µM
[38]
  TGI: > 100 µM
[39]
  TGI: > 100 µM
[40]
  TGI: > 100 µM
[41]
  TGI: > 100 µM
[42]
  TGI: > 100 µM
[43]
  TGI: > 100 µM
[44]
  TGI: > 100 µM
[45]
  TGI: > 100 µM
[46]
  TGI: > 100 µM
[47]
  TGI: > 100 µM
[48]
  TGI: > 100 µM
[49]
  TGI: > 100 µM
[50]
  TGI: > 100 µM
[51]
  TGI: > 100 µM
[52]
  TGI: > 100 µM
[53]
  TGI: > 100 µM
[54]
  TGI: > 100 µM
[55]
  TGI: > 100 µM
[56]
  TGI: > 100 µM

## CC(=O)N1N=C(c2c(O)ccc3ccccc23)CC1C(=O)c1ccco1 (stereo unspecified)
[1]
  TGI: > 100 µM
[2]
  TGI: > 100 µM
[3]
  TGI: > 100 µM
[4]
  TGI: 43.1 µM
[5]
  TGI: > 100 µM
[6]
  TGI: > 100 µM
[7]
  TGI: > 100 µM
[8]
  TGI: > 100 µM
[9]
  TGI: 84.6 µM
[10]
  TGI: > 100 µM
[11]
  TGI: > 100 µM
[12]
  TGI: > 100 µM
[13]
  TGI: > 100 µM
[14]
  TGI: 44 µM
[15]
  TGI: > 100 µM
[16]
  TGI: 49.2 µM
[18]
  TGI: > 100 µM
[19]
  TGI: 32.8 µM
[20]
  TGI: > 100 µM
[21]
  TGI: 47.7 µM
[22]
  TGI: 89.9 µM
[23]
  TGI: > 100 µM
[24]
  TGI: > 100 µM
[25]
  TGI: > 100 µM
[26]
  TGI: > 100 µM
[27]
  TGI: > 100 µM
[28]
  TGI: > 100 µM
[29]
  TGI: > 100 µM
[30]
  TGI: > 100 µM
[31]
  TGI: > 100 µM
[32]
  TGI: > 100 µM
[33]
  TGI: > 100 µM
[34]
  TGI: > 100 µM
[35]
  TGI: > 100 µM
[36]
  TGI: 86 µM
[37]
  TGI: 50.3 µM
[39]
  TGI: > 100 µM
[40]
  TGI: > 100 µM
[41]
  TGI: > 100 µM
[42]
  TGI: 60.1 µM
[43]
  TGI: > 100 µM
[44]
  TGI: > 100 µM
[46]
  TGI: > 100 µM
[57]
  TGI: 66.9 µM
[58]
  TGI: 45.3 µM
[47]
  TGI: 76.9 µM
[48]
  TGI: 74.6 µM
[49]
  TGI: 45 µM
[50]
  TGI: > 100 µM
[51]
  TGI: 57 µM
[52]
  TGI: 57.2 µM
[53]
  TGI: > 100 µM
[54]
  TGI: > 100 µM
[55]
  TGI: > 100 µM
[56]
  TGI: > 100 µM
